The results in this text go back to paper PMC10893492, “Anticancer Evaluation of Novel Benzofuran–Indole Hybrids as Epidermal Growth Factor Receptor Inhibitors against Non-Small-Cell Lung Cancer Cells” (Pharmaceuticals, 2024).

By IC50 is commonly meant the concentration needed to halve the response being measured. Low values mean greater potency in that assay, high ones weaker potency in that assay.

The target of this test is epidermal growth factor receptor (EGFR) (Homo sapiens, UniProt P00533). Kind of test: EGFR kinase assay kit (BPS Bioscience) with Kinase-Glo Max luminescence. It is filed as biochemical. On the technique in general: Kinase-Glo reads ATP consumption through a luciferase reaction.
Chain of epidermal growth factor receptor (EGFR) (P00533 25-1210): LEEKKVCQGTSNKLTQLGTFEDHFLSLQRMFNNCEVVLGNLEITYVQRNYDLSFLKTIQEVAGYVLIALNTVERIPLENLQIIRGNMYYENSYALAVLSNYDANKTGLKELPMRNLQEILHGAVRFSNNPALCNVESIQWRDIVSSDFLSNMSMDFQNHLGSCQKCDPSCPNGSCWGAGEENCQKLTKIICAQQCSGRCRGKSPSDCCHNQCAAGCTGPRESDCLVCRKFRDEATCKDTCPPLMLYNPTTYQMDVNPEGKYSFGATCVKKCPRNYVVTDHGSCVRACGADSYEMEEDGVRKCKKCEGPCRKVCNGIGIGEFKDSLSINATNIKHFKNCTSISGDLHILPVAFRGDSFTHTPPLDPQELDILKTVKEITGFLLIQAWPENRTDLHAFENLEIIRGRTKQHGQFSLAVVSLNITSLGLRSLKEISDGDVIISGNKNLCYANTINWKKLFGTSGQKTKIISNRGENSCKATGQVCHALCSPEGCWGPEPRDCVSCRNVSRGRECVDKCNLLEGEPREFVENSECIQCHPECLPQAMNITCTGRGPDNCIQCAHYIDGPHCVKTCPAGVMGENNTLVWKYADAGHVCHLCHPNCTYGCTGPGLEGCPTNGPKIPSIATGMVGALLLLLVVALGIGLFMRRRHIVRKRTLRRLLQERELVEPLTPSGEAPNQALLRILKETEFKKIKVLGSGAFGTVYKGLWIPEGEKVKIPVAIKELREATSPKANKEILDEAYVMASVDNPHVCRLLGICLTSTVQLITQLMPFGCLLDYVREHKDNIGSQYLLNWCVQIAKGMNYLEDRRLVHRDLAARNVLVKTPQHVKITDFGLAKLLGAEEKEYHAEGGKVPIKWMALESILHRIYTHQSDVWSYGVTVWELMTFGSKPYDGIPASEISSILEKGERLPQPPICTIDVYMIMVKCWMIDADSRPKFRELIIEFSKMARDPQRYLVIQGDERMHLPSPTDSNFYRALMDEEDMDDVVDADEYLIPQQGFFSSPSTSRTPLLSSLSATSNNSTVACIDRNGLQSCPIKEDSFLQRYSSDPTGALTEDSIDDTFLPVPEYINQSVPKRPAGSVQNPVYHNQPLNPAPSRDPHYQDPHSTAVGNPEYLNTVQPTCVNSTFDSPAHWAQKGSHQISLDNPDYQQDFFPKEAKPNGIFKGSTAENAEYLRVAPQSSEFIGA

The molecule `COc1cc2oc(-c3ccccc3)c(-c3c[nH]c4ccc(Br)cc34)c2cc1OC` [8aa, 5-Bromo-3-(5,6-dimethoxy-2-phenylbenzofuran-3-yl)-1H-indole] returned an IC50 of 440 ± 20 nM.
